Measured values taken from US11602520B2, “c-Met regulatory composition and its method for treating liver disease” (priority 2020, dated 2023).

Key:
[1] = system: Normal hepatocytes of FL83B mice; experiment: Cell viability analysis (1), normal hepatocytes, MTS kit; format: cell-based; conditions: for Cell viability (%, relative to the blank group): 24 hours
Description: (§1) Normal hepatocytes of FL83B mice are divided into several groups (FL83B 1×10^4 cells/well), an amount of cells in each of the groups is treated under different conditions respectively and cultured for 24 hours. Then, the commercially available MTS cell viability analysis kit (CellTiter-Glo® One Solution Assay) is used to analyze the cell viability of each of the groups, the treatment condition of each of the groups of cells and the corresponding survival rate are shown in Table 1 to Table 3 below.

[2] = system: Normal hepatocytes of FL83B mice treated with 10 mM acetaminophen (damaged hepatic cells); experiment: Cell viability analysis (2), hepatocytes damaged with 10 mM acetaminophen; format: cell-based; conditions: after acetaminophen damage
Description: (§2) Normal hepatocytes of FL83B mice are divided into several groups (FL83B 1×10^4 cells/well), and treated with 10 mM acetaminophen for 24 hours respectively to make the hepatic cells in a damaged state, the acetaminophen is removed and then the hepatic cells are treated with different concentrations of the Antrodin A and/or the DMB for 24 hours. Then, the commercially available MTS cell viability analysis kit (CellTiter-Glo® One Solution Assay) is used to analyze the cell viability of each of the groups, the treatment condition of each of the groups of cells and the corresponding survival rate are shown in Table 4 to Table 6 below.

[3] = system: c-Met; experiment: Gene expression analysis, real-time qPCR, c-Met; format: cell-based, mice
Description: as §2
(§3) Real-time qPCR kits are used to analyze the gene expression in cells treated with different concentrations of the Antrodin A and the DMB in Example 2, and the results are shown in Tables 7 to 9 below.

[4] = system: Notch-2; experiment: Gene expression analysis, real-time qPCR, Notch-2 RNA; format: cell-based, mice
Description: as §2, §3

[5] = Cell viability analysis (1), normal hepatocytes, MTS kit; format: cell-based, mice; conditions: mouse, FL83B normal hepatocytes, 24 hours, read-out: Cell viability (%, relative to the blank group)
Description: as §1

Compound: CC(C)=CCOc1ccc(C2=C(CC(C)C)C(=O)OC2=O)cc1 [Antrodin A]
- Cell viability (%, relative to the blank group) ([1]; Antrodin A 8.75 ppm): 95.8 ± 4.8%
- Cell viability (%, relative to the blank group) ([1]; Antrodin A 17.5 ppm): 107.1 ± 1.2%
- Cell viability (%, relative to the blank group) ([1]; Antrodin A 35 ppm): 106.8 ± 6.5%
- Cell viability (%, relative to the blank group) ([1]; Antrodin A 70 ppm): 108.5 ± 5.7%
- Cell viability (%, relative to the blank group) ([1]; Antrodin A 140 ppm): 50.8 ± 4.4%
- activity and survival rate of the normal hepatic cells (in words) ([1]; concentration of 8.75 to 70 ppm): capable of effectively maintaining and enhancing the activity and survival rate of the normal hepatic cells
- toxicity to hepatic cells (in words) ([1]; concentration of 140 ppm): toxic to hepatic cells
- repair of damaged hepatic cells (in words) [2]: capable of repairing the damaged hepatic cells and increasing the activity of the hepatic cells
- Cell viability (%, relative to the blank group) ([2]; Antrodin A 17.5 ppm, 24 hours): 101.9 ± 10.7%
- Cell viability (%, relative to the blank group) ([2]; Antrodin A 35 ppm, 24 hours): 90.2 ± 9.9%
- Cell viability (%, relative to the blank group) ([2]; Antrodin A 70 ppm, 24 hours): 102.7 ± 3.3%
- expression level of c-Met in damaged hepatic cells (in words) [3]: increase the expression levels of c-Met and Notch
- expression level of Notch in damaged hepatic cells (in words) [4]: increase the expression levels of c-Met and Notch

Compound: COc1cc(C)c(OC)c2c1OCO2 [DMB, 4,7-Dimethoxy-5-methyl-1,3-benzodioxole]
- viability at 24 h, 1.25 ppm ([5]; DMB 1.25 ppm): 112 ± 2.4%
- viability at 24 h, 2.5 ppm ([5]; DMB 2.5 ppm): 114 ± 1.5%
- viability at 24 h, 5 ppm ([5]; DMB 5 ppm): 115 ± 2%
- viability at 24 h, 10 ppm ([5]; DMB 10 ppm): 113 ± 3.4%
- viability at 24 h, 20 ppm ([5]; DMB 20 ppm): 111 ± 4%
- toxicity to the normal hepatic cells (in words) ([1]; various concentrations): does not cause toxicity to the normal hepatic cells
- viability at 2.5 ppm ([2]; Mus musculus, FL83B, DMB 2.5 ppm, 24 hours, read-out: Cell viability (%, relative to the blank group)): 114 ± 3.9%
- viability at 5 ppm ([2]; Mus musculus, FL83B, DMB 5 ppm, 24 hours, read-out: Cell viability (%, relative to the blank group)): 104 ± 4.4%
- viability at 10 ppm ([2]; Mus musculus, FL83B, DMB 10 ppm, 24 hours, read-out: Cell viability (%, relative to the blank group)): 78.2 ± 8.8%
- viability at 17.5 ppm ([2]; Mus musculus, FL83B, DMB 17.5 ppm, 24 hours, read-out: Cell viability (%, relative to the blank group)): 103 ± 7.7%
- repair of damaged hepatic cells (in words) [2]: capable of repairing the damaged hepatic cells and increasing the activity of the hepatic cells
- expression level of c-Met in damaged hepatic cells (in words) [3]: increase the expression levels of c-Met and Notch
- expression level of Notch in damaged hepatic cells (in words) [4]: increase the expression levels of c-Met and Notch
